From patent US11046699B2, “Pyrazolo-pyrimidin-amino-cycloalkyl compounds and their therapeutic uses” (RAPT THERAPEUTICS, INC., priority 2018, dated 2021) come the findings set out here.

This assay deals with GCN2 (Homo sapiens, UniProt Q9P2K8). Description: GCN2 enzymatic endpoint assay: phosphorylation of GFP-eIF2α measured by TR-FRET (Lanthascreen). It is filed as biochemical. Conditions: tested as described in Example 77; compound and/or hydrochloride, dihydrochloride or trifluoroacetic acid salt; read-out: IC 50 Activity. The gist of the method:
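Read-out is the TR-FRET ratio of acceptor signal at 520 nm to terbium donor at 495 nm, rising with antibody binding to phosphorylated GFP-eIF2α. Endpoint format: 2 μM ATP, 80 nM substrate, 90 minutes at room temperature, EDTA stop.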
On the technique in general: Time-resolved FRET reads energy transfer from a long-lived donor to a nearby acceptor.

Chain of GCN2 (Q9P2K8 whole entry): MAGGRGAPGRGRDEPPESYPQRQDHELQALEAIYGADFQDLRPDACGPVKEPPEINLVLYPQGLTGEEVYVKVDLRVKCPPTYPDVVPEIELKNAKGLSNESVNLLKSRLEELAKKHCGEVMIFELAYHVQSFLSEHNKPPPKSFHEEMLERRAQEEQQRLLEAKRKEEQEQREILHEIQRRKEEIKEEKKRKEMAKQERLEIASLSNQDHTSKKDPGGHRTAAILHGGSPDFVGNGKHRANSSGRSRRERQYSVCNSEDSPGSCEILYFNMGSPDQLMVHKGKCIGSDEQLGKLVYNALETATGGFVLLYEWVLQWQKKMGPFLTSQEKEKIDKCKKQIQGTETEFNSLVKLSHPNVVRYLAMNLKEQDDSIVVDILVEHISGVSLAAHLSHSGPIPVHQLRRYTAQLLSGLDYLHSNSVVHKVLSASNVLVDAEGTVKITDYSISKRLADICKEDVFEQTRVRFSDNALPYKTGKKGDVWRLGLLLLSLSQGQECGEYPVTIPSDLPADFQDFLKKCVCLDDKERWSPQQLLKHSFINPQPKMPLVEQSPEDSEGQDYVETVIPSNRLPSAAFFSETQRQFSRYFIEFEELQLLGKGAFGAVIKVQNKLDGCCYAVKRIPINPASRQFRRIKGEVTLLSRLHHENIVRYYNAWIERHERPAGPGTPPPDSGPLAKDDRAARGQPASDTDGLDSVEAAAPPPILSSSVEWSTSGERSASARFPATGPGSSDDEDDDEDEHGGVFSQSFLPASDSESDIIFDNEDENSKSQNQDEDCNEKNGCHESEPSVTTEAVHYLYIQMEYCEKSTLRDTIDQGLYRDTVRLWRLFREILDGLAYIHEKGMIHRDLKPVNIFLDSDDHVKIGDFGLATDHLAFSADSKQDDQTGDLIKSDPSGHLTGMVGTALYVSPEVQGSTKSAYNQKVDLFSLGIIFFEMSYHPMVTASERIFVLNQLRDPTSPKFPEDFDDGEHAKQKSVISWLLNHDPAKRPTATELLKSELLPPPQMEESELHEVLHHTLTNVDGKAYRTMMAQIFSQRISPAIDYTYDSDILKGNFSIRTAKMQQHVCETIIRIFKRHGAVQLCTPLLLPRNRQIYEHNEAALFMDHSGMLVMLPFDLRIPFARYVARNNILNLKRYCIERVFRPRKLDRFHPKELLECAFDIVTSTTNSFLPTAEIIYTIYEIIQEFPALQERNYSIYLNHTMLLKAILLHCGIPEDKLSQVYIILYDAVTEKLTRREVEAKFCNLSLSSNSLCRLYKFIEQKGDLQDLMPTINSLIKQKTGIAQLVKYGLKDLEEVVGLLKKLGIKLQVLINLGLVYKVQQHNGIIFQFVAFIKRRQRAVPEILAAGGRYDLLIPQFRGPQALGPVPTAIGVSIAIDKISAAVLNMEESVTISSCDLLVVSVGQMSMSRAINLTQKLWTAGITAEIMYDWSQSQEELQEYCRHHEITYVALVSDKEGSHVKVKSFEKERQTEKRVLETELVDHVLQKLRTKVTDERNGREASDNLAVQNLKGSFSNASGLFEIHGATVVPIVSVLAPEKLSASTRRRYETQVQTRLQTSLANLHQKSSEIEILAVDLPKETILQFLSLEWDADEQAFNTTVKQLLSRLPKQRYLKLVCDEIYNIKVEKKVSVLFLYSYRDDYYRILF

With `C[C@@]1(C(=O)O)CC[C@@H](Nc2ncc3c(Br)nn(-c4cc(CCN)c5ncccc5c4)c3n2)C1` [(1R,3R)-3-[[1-[8-(2-aminoethyl)-6-quinolyl]-3-bromo-pyrazolo[3,4-d]pyrimidin-6-yl]amino]-1-methyl-cyclopentanecarboxylic acid], the IC50 is < 0.025 µM.
For the compound `CNC(=O)[C@]1(C)CC[C@@H](Nc2ncc3c(Br)nn(-c4cc(CCN)c5nccnc5c4)c3n2)C1` [(1R,3R)-3-[[1-[8-(2-aminoethyl)quinoxalin-6-yl]-3-bromo-pyrazolo[3,4-d]pyrimidin-6-yl]amino]-N,1-dimethyl-cyclopentane-carboxamide], the IC50 lay in the range of 0.025 to 0.2 µM.
As to `CNC(=O)[C@]1(C)CC[C@@H](Nc2ncc3c(Br)nn(-c4cc(NC(=O)CCN)c5ncccc5c4)c3n2)C1` [(1R,3R)-3-[[1-[8-(3-aminopropanoylamino)-6-quinolyl]-3-bromo-pyrazolo[3,4-d]pyrimidin-6-yl]amino]-N,1-dimethyl-cyclopentanecarboxamide], the IC50 was < 0.025 µM.
As for `CNC(=O)[C@]1(C)CC[C@@H](Nc2ncc3c(Br)nn(-c4cnc5c(CCCN)cccc5c4)c3n2)C1` [(1R,3R)-3-[[1-[8-(3-aminopropyl)-3-quinolyl]-3-bromo-pyrazolo[3,4-d]pyrimidin-6-yl]amino]-N,1-dimethyl-cyclopentanecarboxamide], the IC50 lay in the range of 0.025 to 0.2 µM.
For `CNC(=O)[C@]1(C)CC[C@@H](Nc2ncc3c(Br)nn(-c4cc(CCCN)c5ncccc5c4)c3n2)C1` [(1R,3R)-3-[[1-[8-(3-aminopropyl)-6-quinolyl]-3-bromo-pyrazolo[3,4-d]pyrimidin-6-yl]amino]-N,1-dimethyl-cyclopentanecarboxamide] the value was 0.025 to 0.2 µM; for `CNC(=O)[C@]1(C)CC[C@@H](Nc2ncc3c(Br)nn(-c4cc(NC(=O)CCCN)c5ncccc5c4)c3n2)C1` [(1R,3R)-3-[[1-[8-(4-aminobutanoylamino)-6-quinolyl]-3-bromo-pyrazolo[3,4-d]pyrimidin-6-yl]amino]-N,1-dimethyl-cyclopentanecarboxamide], 0.025 to 0.2 µM.
The result for `CNC(=O)[C@]1(C)CC[C@@H](Nc2ncc3c(Br)nn(-c4cc(CN)c5nccnc5c4)c3n2)C1` [(1R,3R)-3-[[1-[8-(aminomethyl)quinoxalin-6-yl]-3-bromo-pyrazolo[3,4-d]pyrimidin-6-yl]amino]-N,1-dimethyl-cyclopentane-carboxamide] reads 0.025 to 0.2 µM; that for `CNC(=O)[C@]1(C)CC[C@@H](Nc2ncc3c(Br)nn(-c4cc(C5CNC5)c5ncccc5c4)c3n2)C1` [(1R,3R)-3-[[1-[8-(azetidin-3-yl)-6-quinolyl]-3-bromo-pyrazolo[3,4-d]pyrimidin-6-yl]amino]-N,1-dimethyl-cyclopentane-carboxamide], 0.025 to 0.2 µM; that for `CNC(=O)[C@]1(C)CC[C@@H](Nc2ncc3c(Br)nn(-c4cc(C5(CN)CC5)c5ncccc5c4)c3n2)C1` [(1R,3R)-3-[[1-[8-[1-(aminomethyl)cyclo-propyl]-6-quinolyl]-3-bromo-pyrazolo [3,4-d]pyrimidin-6-yl]amino]-N,1-dimethyl-cyclopentanecarboxamide], 0.025 to 0.2 µM.
As to `CNC(=O)[C@]1(C)CC[C@@H](Nc2ncc3c(Br)nn(-c4cc(CC5(N)CC5)c5ncccc5c4)c3n2)C1` [(1R,3R)-3-[[1-[8-[(1-aminocyclopropyl)methyl]-6-quinolyl]-3-bromo-pyrazolo [3,4-d]pyrimidin-6-yl]amino]-N,1-dimethyl-cyclopentanecarboxamide], the IC50 lay in the range of 0.025 to 0.2 µM.
As to `CNC(=O)[C@]1(C)CC[C@@H](Nc2ncc3c(Br)nn(-c4cc([C@H](C)N)c5nccnc5c4)c3n2)C1` [(1R,3R)-3-[[1-[8-[(1S)-1-aminoethyl]quinoxalin-6-yl]-3-bromo-pyrazolo [3,4-d]pyrimidin-6-yl]amino]-N,1-dimethyl-cyclopentanecarboxamide], the IC50 was 0.025 to 0.2 µM.
On to `CNC(=O)[C@]1(C)CC[C@@H](Nc2ncc3c(Br)nn(-c4cc(NC(=O)CN)c5ncccc5c4)c3n2)C1` [(1R,3R)-3-[[1-[8-[(2-aminoacetyl)amino]-6-quinolyl]-3-bromo-pyrazolo[3,4-d]pyrimidin-6-yl]amino]-N,1-dimethyl-cyclopentanecarboxamide], for which the IC50 lay within 0.025 to 0.2 µM.
`CNC(=O)[C@]1(C)CC[C@@H](Nc2ncc3c(Br)nn(-c4ccc5c(c4)CCCN5)c3n2)C1` [(1R,3R)-3-[[3-bromo-1-(1,2,3,4-tetra-hydroquinolin-6-yl)pyrazolo[3,4-d]pyrimidin-6-yl]amino]-N,1-dimethyl-cyclopentanecarboxamide]: the IC50 is 0.025 to 0.2 µM.
With `CNC(=O)[C@]1(C)CC[C@@H](Nc2ncc3c(Br)nn(-c4ccc5c(=O)n(C)c(=O)n(C)c5c4)c3n2)C1` [(1R,3R)-3-[[3-bromo-1-(1,3-dimethyl-2,4-dioxo-quinazolin-7-yl)pyrazolo [3,4-d]pyrimidin-6-yl]amino]-N,1-dimethyl-cyclopentanecarboxamide], the IC50 was < 0.025 µM.
On to `CNC(=O)[C@@H]1CC[C@@H](Nc2ncc3c(Br)nn(-c4ccc5c(C)nn(C)c5c4)c3n2)C1` [(1R,3R)-3-[[3-bromo-1-(1,3-dimethylindazol-6-yl)pyrazolo[3,4-d]pyrimidin-6-yl]amino]-N-methyl-cyclopentanecarboxamide], for which the IC50 lay in the range of 0.025 to 0.2 µM.
Turning to `CNC(=O)[C@]1(C)CC[C@@H](Nc2ncc3c(Br)nn(-c4ccc5c(c4)C(=O)NC5=O)c3n2)C1` [(1R,3R)-3-[[3-bromo-1-(1,3-dioxo-isoindolin-5-yl)pyrazolo[3,4-d]pyrimidin-6-yl]amino]-N,1-dimethyl-cyclopentanecarboxamide], the IC50 was in the range of 0.025 to 0.2 µM.
For `CNC(=O)[C@]1(C)CC[C@@H](Nc2ncc3c(Br)nn(-c4ccc5c(c4)n(C)c(=O)c(=O)n5C)c3n2)C1` [(1R,3R)-3-[[3-bromo-1-(1,4-dimethyl-2,3-dioxo-quinoxalin-6-yl)pyrazolo [3,4-d]pyrimidin-6-yl]amino]-N,1-dimethyl-cyclopentanecarboxamide] the value was 0.025 to 0.2 µM; for `CNC(=O)[C@]1(C)CC[C@@H](Nc2ncc3c(Br)nn(-c4cc5cccnc5cn4)c3n2)C1` [(1R,3R)-3-[[3-bromo-1-(1,7-naphthyridin-6-yl)pyrazolo[3,4-d]pyrimidin-6-yl]amino]-N,1-dimethyl-cyclopentane-carboxamide], 0.025 to 0.2 µM; for `CNC(=O)[C@@H]1CC[C@@H](Nc2ncc3c(Br)nn(-c4cnc5ncccc5c4)c3n2)C1` [(1R,3R)-3-[[3-bromo-1-(1,8-naphthyridin-3-yl)pyrazolo[3,4-d]pyrimidin-6-yl]amino]-N-methyl-cyclopentanecarboxamide], 0.025 to 0.2 µM.
The result for `CNC(=O)[C@]1(C)CC[C@@H](Nc2ncc3c(Br)nn(-c4ccc5c(c4)CCNC5=O)c3n2)C1` [(1R,3R)-3-[[3-bromo-1-(1-oxo-3,4-dihydro-2H-isoquinolin-6-yl)pyrazolo[3,4-d]pyrimidin-6-yl]amino]-N,1-dimethyl-cyclopentanecarboxamide] reads 0.025 to 0.2 µM; that for `CNC(=O)[C@]1(C)CC[C@@H](Nc2ncc3c(Br)nn(-c4ccc5c(c4)OC(C)(C)C(=O)N5C)c3n2)C1` [(1R,3R)-3-[[3-bromo-1-(2,2,4-trimethyl-3-oxo-1,4-benzoxazin-7-yl)pyrazolo [3,4-d]pyrimidin-6-yl]amino]-N,1-dimethyl-cyclopentanecarboxamide], 0.025 to 0.2 µM.
For the compound `CNC(=O)[C@]1(C)CC[C@@H](Nc2ncc3c(Br)nn(-c4ccc5c(c4)CS(=O)(=O)C5)c3n2)C1` [(1R,3R)-3-[[3-bromo-1-(2,2-dioxo-1,3-dihydro-2-benzothiophen-5-yl)pyrazolo[3,4-d]pyrimidin-6-yl]amino]-N,1-dimethyl-cyclopentanecarboxamide], the IC50 was 0.025 to 0.2 µM.
For `CNC(=O)[C@]1(C)CC[C@@H](Nc2ncc3c(Br)nn(-c4ccc5c(c4)C(=O)C(=O)N5)c3n2)C1` [(1R,3R)-3-[[3-bromo-1-(2,3-dioxo-indolin-5-yl)pyrazolo[3,4-d]pyrimidin-6-yl]amino]-N,1-dimethyl-cyclo-pentanecarboxamide] the value was 0.025 to 0.2 µM; for `CNC(=O)[C@]1(C)CC[C@@H](Nc2ncc3c(Br)nn(-c4ccc5nc(N)nc(N)c5c4)c3n2)C1` [(1R,3R)-3-[[3-bromo-1-(2,4-diamino-quinazolin-6-yl)pyrazolo[3,4-d]pyrimidin-6-yl]amino]-N,1-dimethyl-cyclopentane-carboxamide; 2,2,2-trifluoroacetic acid], 0.025 to 0.2 µM; for `CNC(=O)[C@]1(C)CC[C@@H](Nc2ncc3c(Br)nn(-c4ccc5c(c4)OC(C)C(=O)N5C)c3n2)C1` (stereo partly drawn) [(1R,3R)-3-[[3-bromo-1-(2,4-dimethyl-3-oxo-1,4-benzoxazin-7-yl)pyrazolo [3,4-d]pyrimidin-6-yl]amino]-N,1-dimethyl-cyclopentanecarboxamide], 0.025 to 0.2 µM.
The result for `CCS(=O)(=O)N1Cc2ccc(-n3nc(Br)c4cnc(N[C@@H]5CC[C@@](C)(C(=O)NC)C5)nc43)cc2C1` [(1R,3R)-3-[[3-bromo-1-(2-ethylsulfonyl-isoindolin-5-yl)pyrazolo[3,4-d]pyrimidin-6-yl]amino]-N,1-dimethyl-cyclopentane-carboxamide] reads 0.025 to 0.2 µM; that for `CNC(=O)[C@]1(C)CC[C@@H](Nc2ncc3c(Br)nn(-c4ccc5c(c4)CN(C=O)CC5)c3n2)C1` [(1R,3R)-3-[[3-bromo-1-(2-formyl-3,4-dihydro-1H-isoquinolin-7-yl)pyrazolo [3,4-d]pyrimidin-6-yl]amino]-N,1-dimethyl-cyclopentanecarboxamide], 0.025 to 0.2 µM.
`CNC(=O)[C@]1(C)CC[C@@H](Nc2ncc3c(Br)nn(-c4ccc5nc(OC)ccc5c4)c3n2)C1` [(1R,3R)-3-[[3-bromo-1-(2-methoxy-6-quinolyl)pyrazolo[3,4-d]pyrimidin-6-yl]amino]-N,1-dimethyl-cyclopentane-carboxamide]: the IC50 was in the range of 0.025 to 0.2 µM.
The result for `CNC(=O)[C@@H]1CC[C@@H](Nc2ncc3c(Br)nn(-c4ccc5nc(OC)ccc5c4)c3n2)C1` [(1R,3R)-3-[[3-bromo-1-(2-methoxy-6-quinolyl)pyrazolo[3,4-d]pyrimidin-6-yl]amino]-N-methyl-cyclopentanecarboxamide] reads 0.025 to 0.2 µM.
